Assay results published in patent US8940742B2, “Heterocyclic compounds and uses thereof” (Infinity Pharmaceuticals, Inc., priority 2012, dated 2015).

Assays:
RAJI p110 δ = RAJI p110 δ (Homo sapiens, UniProt O00329); assay: RAJI p110 δ cellular assay (phospho-AKT);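 also: potency based on lowered phosphorylated AKT in RAJI cells, as a readout of PI3K-δ dependent B-cell receptor signaling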
Description: (a) PI3K-δ Selective Assay
Reduction of phospho-AKT is indicative of compounds that may inhibit B-cell proliferation and function in certain diseases.

PI3K γ = biological target: T1, PI3K γ (Homo sapiens, UniProt P48736); assay: PI3-Kinase Promega ADP-Glo Max assay; format: biochemical; details: 40 nM kinase, 3 mM ATP, 500 uM diC8-PtdInsP
T1 construct: purchased Millipore
T1 sequence (P48736 whole entry): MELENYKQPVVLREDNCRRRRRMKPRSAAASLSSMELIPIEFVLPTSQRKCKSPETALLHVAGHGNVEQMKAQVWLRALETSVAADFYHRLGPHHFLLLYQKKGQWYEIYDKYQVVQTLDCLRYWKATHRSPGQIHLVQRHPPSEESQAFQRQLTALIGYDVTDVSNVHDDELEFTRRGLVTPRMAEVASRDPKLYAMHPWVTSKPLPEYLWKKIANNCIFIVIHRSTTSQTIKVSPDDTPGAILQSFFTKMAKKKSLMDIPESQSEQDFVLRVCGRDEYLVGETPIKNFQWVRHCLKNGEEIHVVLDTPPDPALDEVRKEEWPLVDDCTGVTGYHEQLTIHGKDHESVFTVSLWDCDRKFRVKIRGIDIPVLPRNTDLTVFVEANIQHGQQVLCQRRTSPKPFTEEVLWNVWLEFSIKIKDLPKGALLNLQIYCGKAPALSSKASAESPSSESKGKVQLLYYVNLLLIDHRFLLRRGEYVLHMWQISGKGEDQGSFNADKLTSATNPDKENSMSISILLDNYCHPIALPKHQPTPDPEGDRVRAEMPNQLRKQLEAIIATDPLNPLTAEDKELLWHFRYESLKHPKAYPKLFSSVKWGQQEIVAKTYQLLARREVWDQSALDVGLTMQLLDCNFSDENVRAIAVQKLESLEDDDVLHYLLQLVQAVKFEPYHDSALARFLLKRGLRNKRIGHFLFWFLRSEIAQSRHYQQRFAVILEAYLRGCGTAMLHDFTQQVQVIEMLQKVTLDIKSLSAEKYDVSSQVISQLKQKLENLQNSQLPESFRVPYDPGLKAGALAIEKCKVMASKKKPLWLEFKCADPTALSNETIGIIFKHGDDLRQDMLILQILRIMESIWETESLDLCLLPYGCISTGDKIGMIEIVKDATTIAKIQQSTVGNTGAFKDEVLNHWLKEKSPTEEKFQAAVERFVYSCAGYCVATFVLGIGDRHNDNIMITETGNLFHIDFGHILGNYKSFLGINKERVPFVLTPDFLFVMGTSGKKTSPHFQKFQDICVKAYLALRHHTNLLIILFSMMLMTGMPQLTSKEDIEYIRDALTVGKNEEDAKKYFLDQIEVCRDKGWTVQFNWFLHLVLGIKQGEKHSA
Method in brief: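 Human class I PI3K reactions ran 2 hours at room temperature, followed by stop solution (40 min) and detection mix (1 hour) before luminescence reading.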

PI3K α = biological target: T2, PI3K α (Homo sapiens, UniProt P42336); assay: PI3-Kinase Promega ADP-Glo Max assay; format: biochemical; details: 20 nM kinase, 3 mM ATP, 500 uM diC8-PtdInsP
T2 construct: purchased Millipore
Method in brief: (§1)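 Human class I PI3K (20 nM α or δ, 40 nM β) pre-incubated 15 min with compound in HEPES pH 7.4 buffer with MgCl2, then reacted 2 h at room temperature with 3 mM ATP and 500 uM diC8-PtdInsP. ADP measured by ADP-Glo Max luminescence; % inhibition fitted to 4-parameter logistic for IC50.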

PI3K β = biological target: T3, PI3K β (Homo sapiens, UniProt P42338); assay: PI3-Kinase Promega ADP-Glo Max assay; format: biochemical; details: 40 nM kinase, 3 mM ATP, 500 uM diC8-PtdInsP
T3 construct: purchased Millipore
T3 sequence (P42338 whole entry): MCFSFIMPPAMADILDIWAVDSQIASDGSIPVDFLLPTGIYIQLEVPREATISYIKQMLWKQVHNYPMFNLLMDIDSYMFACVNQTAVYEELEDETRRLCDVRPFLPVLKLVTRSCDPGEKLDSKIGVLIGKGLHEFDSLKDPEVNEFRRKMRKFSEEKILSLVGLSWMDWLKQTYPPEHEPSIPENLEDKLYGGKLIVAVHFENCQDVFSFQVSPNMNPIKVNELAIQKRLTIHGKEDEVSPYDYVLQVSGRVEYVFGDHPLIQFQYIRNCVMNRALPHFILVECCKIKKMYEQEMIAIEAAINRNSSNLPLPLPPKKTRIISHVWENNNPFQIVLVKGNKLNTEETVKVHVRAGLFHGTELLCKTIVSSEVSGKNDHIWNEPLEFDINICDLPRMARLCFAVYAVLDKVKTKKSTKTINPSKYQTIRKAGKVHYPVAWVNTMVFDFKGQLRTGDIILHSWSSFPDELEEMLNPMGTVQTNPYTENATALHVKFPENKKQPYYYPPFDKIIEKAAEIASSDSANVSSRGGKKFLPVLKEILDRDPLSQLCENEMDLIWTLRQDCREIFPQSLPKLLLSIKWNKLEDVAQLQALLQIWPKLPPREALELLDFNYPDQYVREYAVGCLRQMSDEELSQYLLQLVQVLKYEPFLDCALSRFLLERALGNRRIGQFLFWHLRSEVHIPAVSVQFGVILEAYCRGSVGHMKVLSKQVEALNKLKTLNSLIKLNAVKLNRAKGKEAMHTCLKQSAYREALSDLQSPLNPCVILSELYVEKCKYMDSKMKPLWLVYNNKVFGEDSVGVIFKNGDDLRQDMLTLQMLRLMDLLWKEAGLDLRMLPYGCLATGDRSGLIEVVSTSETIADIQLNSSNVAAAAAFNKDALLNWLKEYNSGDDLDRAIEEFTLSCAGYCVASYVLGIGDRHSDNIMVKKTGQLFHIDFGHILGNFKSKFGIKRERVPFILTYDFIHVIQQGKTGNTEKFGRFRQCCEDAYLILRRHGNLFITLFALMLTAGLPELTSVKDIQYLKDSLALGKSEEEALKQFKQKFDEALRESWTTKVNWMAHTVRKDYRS
T3 sequence (P27986 whole entry partner): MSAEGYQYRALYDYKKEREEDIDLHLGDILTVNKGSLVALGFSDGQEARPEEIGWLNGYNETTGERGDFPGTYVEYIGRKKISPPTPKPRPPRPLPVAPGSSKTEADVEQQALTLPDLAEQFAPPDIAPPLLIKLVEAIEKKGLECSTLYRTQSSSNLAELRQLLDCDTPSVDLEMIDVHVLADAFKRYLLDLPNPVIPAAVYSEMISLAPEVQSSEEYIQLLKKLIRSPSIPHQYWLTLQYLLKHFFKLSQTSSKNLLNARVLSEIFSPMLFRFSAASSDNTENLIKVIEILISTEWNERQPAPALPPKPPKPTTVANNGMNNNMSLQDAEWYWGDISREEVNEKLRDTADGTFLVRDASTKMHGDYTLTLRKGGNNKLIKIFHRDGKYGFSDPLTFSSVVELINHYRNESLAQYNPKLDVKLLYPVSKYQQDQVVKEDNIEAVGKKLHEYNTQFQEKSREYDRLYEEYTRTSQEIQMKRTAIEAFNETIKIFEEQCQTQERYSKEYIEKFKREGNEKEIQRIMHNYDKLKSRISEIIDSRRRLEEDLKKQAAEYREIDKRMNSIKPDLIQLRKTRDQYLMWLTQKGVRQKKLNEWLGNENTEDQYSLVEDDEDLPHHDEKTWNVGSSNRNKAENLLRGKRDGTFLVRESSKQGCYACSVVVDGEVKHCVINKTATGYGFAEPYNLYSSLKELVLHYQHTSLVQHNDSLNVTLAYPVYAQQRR
Method in brief: as §1

PI3K δ = biological target: T4, PI3K δ (Homo sapiens, UniProt O00329); assay: PI3-Kinase Promega ADP-Glo Max assay; format: biochemical; details: 20 nM kinase, 3 mM ATP, 500 uM diC8-PtdInsP
T4 construct: purchased Millipore
T4 sequence (O00329 whole entry): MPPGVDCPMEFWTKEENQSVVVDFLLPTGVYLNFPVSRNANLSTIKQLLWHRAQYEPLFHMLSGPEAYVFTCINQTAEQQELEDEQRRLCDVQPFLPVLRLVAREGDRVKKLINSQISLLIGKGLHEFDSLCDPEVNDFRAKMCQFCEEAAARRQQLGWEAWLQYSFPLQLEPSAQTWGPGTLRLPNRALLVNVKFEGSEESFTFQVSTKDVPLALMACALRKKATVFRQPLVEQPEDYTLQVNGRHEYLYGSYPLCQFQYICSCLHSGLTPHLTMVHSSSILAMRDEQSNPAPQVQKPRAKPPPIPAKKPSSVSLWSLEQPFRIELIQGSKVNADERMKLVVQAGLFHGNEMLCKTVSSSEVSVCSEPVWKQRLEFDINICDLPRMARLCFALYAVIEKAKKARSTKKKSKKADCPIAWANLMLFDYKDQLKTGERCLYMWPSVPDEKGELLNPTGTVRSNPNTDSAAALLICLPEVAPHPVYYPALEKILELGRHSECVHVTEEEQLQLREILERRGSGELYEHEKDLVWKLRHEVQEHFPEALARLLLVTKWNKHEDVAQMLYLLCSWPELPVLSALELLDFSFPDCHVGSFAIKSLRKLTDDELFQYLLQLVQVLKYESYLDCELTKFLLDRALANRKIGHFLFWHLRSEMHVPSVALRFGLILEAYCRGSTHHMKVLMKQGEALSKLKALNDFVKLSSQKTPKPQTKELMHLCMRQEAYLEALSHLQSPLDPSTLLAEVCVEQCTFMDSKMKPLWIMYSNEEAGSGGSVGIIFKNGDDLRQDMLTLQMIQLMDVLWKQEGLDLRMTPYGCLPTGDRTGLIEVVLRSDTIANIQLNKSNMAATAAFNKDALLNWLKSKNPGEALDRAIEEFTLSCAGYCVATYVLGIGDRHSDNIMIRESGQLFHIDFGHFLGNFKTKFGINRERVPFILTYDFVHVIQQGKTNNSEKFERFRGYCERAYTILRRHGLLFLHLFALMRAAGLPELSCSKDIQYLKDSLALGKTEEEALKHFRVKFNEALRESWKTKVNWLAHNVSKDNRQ
T4 sequence (P27986 whole entry partner): as the sequence (P27986 whole entry partner) above
Method in brief: as §1

Raw264.7 p110 γ = biological target: T5, Raw264.7 p110 γ (Mus musculus, UniProt Q9JHG7); assay: Raw264.7 p110 γ cellular assay (phospho-AKT); format: cell-based; details: serum-starved RAW264.7 cells stimulated with C5a
T5 construct: reduction of phospho-AKT in stimulated RAW 264.7 cells; endogenous in cells; host or cells: RAW264.7 macrophages
Description: (b) PI3K-γ Selective Assay
Briefly, serum-starved PAW264.7 cells are stimulated with a known GPCR agonist C5a. […] Cells can be treated with test compounds prior to, simultaneously with, or subsequent to the stimulation by C5a. RAW 264.7 cells respond to the complement component fragment C5a through activation of the C5a receptor, and the C5a receptor activates macrophages and induces cell migration.

Chain of RAJI p110 δ (O00329 whole entry): as the sequence (O00329 whole entry) above
Chain of RAJI p110 δ (P27986 whole entry partner): as the sequence (P27986 whole entry partner) above

SMILES | IC50 (RAJI p110 δ) | IC50 (PI3K γ) | IC50 (PI3K α) | IC50 (PI3K β) | IC50 (PI3K δ) | IC50 (Raw264.7 p110 γ)
C=CCn1c([C@H](C)NC(=O)c2c(N)nn3cccnc23)cc2cccc(Cl)c2c1=O [Compound 235] | < 100 nM | 100 to 1000 nM | 1000 to 10000 nM | < 100 nM | 100 to 1000 nM | < 100 nM
C[C@H](NC(=O)c1c(N)nn2cccnc12)c1cc2ccccc2c(=O)n1-c1ccccc1 [Compound 133] | 100 to 1000 nM | 100 to 1000 nM | > 10000 nM | 1000 to 10000 nM | 1000 to 10000 nM | < 100 nM
C[C@H](NC(=O)c1c(N)nn2cccnc12)c1cc2sccc2c(=O)n1-c1ccccc1 [Compound 225] | 100 to 1000 nM | 1000 to 10000 nM | > 10000 nM | 1000 to 10000 nM | 1000 to 10000 nM | 100 to 1000 nM
COc1cccc2cc([C@H](C)NC(=O)c3c(N)nn4cccnc34)n(-c3ccccc3)c(=O)c12 [Compound 270] | 100 to 1000 nM | 1000 to 10000 nM | > 10000 nM | > 10000 nM | 1000 to 10000 nM | 100 to 1000 nM
COc1cc(-c2cccc3cc([C@H](C)NC(=O)c4c(N)nn5cccnc45)n(C)c(=O)c23)ccn1 [Compound 220] | < 100 nM | 1000 to 10000 nM | 1000 to 10000 nM | > 10000 nM | 1000 to 10000 nM | < 100 nM
Cc1cnc(C(=O)N[C@@H](C)c2cc3cccc(C(F)(F)F)c3c(=O)n2-c2ccccc2)c(N)n1 [Compound 80] | 1000 to 10000 nM | 1000 to 10000 nM | > 10000 nM | > 10000 nM | > 10000 nM | 100 to 1000 nM
C[C@H](NC(=O)c1c(N)nn2cccnc12)c1cc2cccc(-c3ccncc3)c2c(=O)n1-c1ccccc1 [Compound 117] | < 100 nM | 100 to 1000 nM | 1000 to 10000 nM | > 10000 nM | 1000 to 10000 nM | < 100 nM
COc1cc(-c2cccc3cc(C(C)NC(=O)c4c(N)nn5cccnc45)c(-c4ccccc4)nc23)ccn1 (stereo not drawn) [Compound 219] | 100 to 1000 nM | 1000 to 10000 nM | > 10000 nM | > 10000 nM | > 10000 nM | < 100 nM
C[C@H](NC(=O)c1nc(-c2cnn(C)c2)cnc1N)c1cc2cccc(Cl)c2c(=O)n1-c1ccccc1 [Compound 109] | 100 to 1000 nM | 1000 to 10000 nM | 1000 to 10000 nM | 1000 to 10000 nM | > 10000 nM | < 100 nM
C[C@H](NC(=O)c1c(N)nn2cccnc12)c1cc2cccc(Cl)c2c(=O)n1-c1cccc(F)c1 [Compound 78] | < 100 nM | < 100 nM | 1000 to 10000 nM | 100 to 1000 nM | 100 to 1000 nM | < 100 nM
C[C@H](NC(=O)c1c(N)nn2cccnc12)c1cc2cccc(NCC(F)(F)F)c2c(=O)n1-c1ccccc1 [Compound 267] | 100 to 1000 nM | 1000 to 10000 nM | > 10000 nM | > 10000 nM | > 10000 nM | 100 to 1000 nM
C[C@H](NC(=O)c1c(N)nn2cccnc12)c1c(C#N)c2cccc(F)c2c(=O)n1-c1ccccc1 [Compound 269] | < 100 nM | 100 to 1000 nM | 1000 to 10000 nM | 100 to 1000 nM | 100 to 1000 nM | < 100 nM
C[C@H](NC(=O)c1c(N)nn2cccnc12)c1cc2cccc(C#CCNC(=O)[C@H]3CCC(=O)O3)c2c(=O)n1-c1ccccc1 [Compound 158] | < 100 nM | < 100 nM | 1000 to 10000 nM | 1000 to 10000 nM | 1000 to 10000 nM | < 100 nM
C[C@H](NC(=O)c1nc(-c2cccc(S(=O)(=O)N(C)C)c2)cnc1N)c1cc2cccc(Cl)c2c(=O)n1-c1ccccc1 [Compound 91] | 100 to 1000 nM | 1000 to 10000 nM | > 10000 nM | 1000 to 10000 nM | 1000 to 10000 nM | 100 to 1000 nM
Cc1ccn2ncc(C(=O)N[C@@H](C)c3cc4cccc(Cl)c4c(=O)n3-c3ccccc3)c2n1 [Compound 82] | 100 to 1000 nM | 1000 to 10000 nM | > 10000 nM | 1000 to 10000 nM | 1000 to 10000 nM | 100 to 1000 nM
